Experimental data reported in patent US20090023646A1, “GHRH analogues” (Centre Hospitalier de L'Universite de Montreal (CHUM), priority 2002, published 2009).
Square brackets hold non-standard residues; d marks the D form. Peptide text beside a SMILES is read from it.

How the values were obtained:
human GHRH receptor = target: T1, human GHRH receptor (Homo sapiens, UniProt Q02643); assay: Competitive 125I-GHRH binding assay in BHK cell membrane preparations expressing the human GHRH receptor
T1 construct: expressed in transfected cells; host or cells: BHK (baby hamster kidney) 570 cells
T1 sequence (Q02643 23-423): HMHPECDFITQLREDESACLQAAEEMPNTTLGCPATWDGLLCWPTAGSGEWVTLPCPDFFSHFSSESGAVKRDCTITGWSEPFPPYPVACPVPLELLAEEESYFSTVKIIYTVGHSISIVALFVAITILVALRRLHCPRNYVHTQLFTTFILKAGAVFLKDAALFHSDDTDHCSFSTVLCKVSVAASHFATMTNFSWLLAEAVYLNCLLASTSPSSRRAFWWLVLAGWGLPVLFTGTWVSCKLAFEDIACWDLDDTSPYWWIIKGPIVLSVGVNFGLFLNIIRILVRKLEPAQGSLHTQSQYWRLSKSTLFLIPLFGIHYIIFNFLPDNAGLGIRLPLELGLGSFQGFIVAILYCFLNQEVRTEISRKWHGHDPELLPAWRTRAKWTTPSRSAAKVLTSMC
Experimental: Non specific binding was determined in presence of 1 μM hGHRH(1-29)NH2. Incubation was carried out at equilibrium (23° C., 60 min) and stopped by centrifugation (12,000 g, 5 min, at 4° C.). The radioactivity content in pellets was determined by gamma counting. The affinity of hGHRH(1-29) NH2 was tested in each experiment to assess the validity of the assay and determine the relative affinity of the analogues.
Values represent the mean±SEM of 3 experiments performed in triplicate for the analogues and the mean±SEM of 2 experiments performed in triplicate for hGHRH(1-44) NH2.
For the binding assay results presented in Tables 8 to 11, values represent the mean±SEM of 8 independent experiments performed in triplicate for the analogues and the mean±SEM of 4 experiments performed in triplicate for hGHRH(1-29)NH2. […] The relative affinity was obtained by taking the ratio IC50 of hGHRH (1-29)-NH2/IC50 analogue.

[1] = In vitro proteolysis assay in rat serum; assay type: in vitro ADME; conditions: mean±SEM
Experimental: Proteolysis was stopped by adding 800 μl of ice-cold stop buffer (potassium-phosphate buffer, acidified to pH 0.8 with trifluoroacetic acid (TFA) and boiling 5 min (rat serum only). After centrifugation (12000 g, 5 min, 4° C.) (rat serum only), serum-peptide mixtures were passed through a conditioned Sep-Pak C-18 cartridge to extract native GHRH or a GHRH analogue residual concentrations from serum proteins. The native GHRH or the analogue was eluted in 2 ml of 50% acetonitrile-0.01% TFA/50% 0.01% aqueous TFA. Two hundred μl of extracted peptide, representing 1 μg of GHRH or analogue at time 0, was quantified by analytical HPLC, using one μ-Bondapak C18 column (10 μm particle size, 0.39×15 cm) (rat serum) or two C18 column in series (human serum and plasma) and a binary solvent system composed of NaClO4 0.01 M, pH 2.5 and acetonitrile. A linear gradient from 30 to 60% acetonitrile over 45 min (rat serum) or 30 to 50% (human serum and plasma) was used.

[2] = In vitro proteolysis assay in human serum; assay type: in vitro ADME
Experimental: (§1) Ten μl of a 300 M solution of hGHRH (1-29)NH2 or of a GHRH analogue was solubilized in dimethylsulfoxide (DMSO) and incubated in one of the following conditions: a—190 μl serum (1/100 dilution in picopure water) from 2-month-old male Sprague Dawley rats, at 37° C. for 0, 8, 15, 30 or 60 min, in polypropylene tubes; b—190 μl of human healthy volunteer plasma (from Human Whole Blood Na EDTA, males, drug free (Algorithme Pharma Inc.); project: MTL-P2-155; Lot: MTLP2155-01, supplied by LAB Dev Int); and c—190 μl of human healthy volunteer pooled serum, Lot: X409 (supplied by LAB Dev Int), at 37° C. for 0, 60, 120, 180 or 420 min, in polypropylene tubes. Proteolysis was stopped by adding 800 μl of ice-cold stop buffer (potassium-phosphate buffer, acidified to pH 0.8 with trifluoroacetic acid (TFA) and boiling 5 min (rat serum only). After centrifugation (12000 g, 5 min, 4° C.) (rat serum only), serum-peptide mixtures were passed through a conditioned Sep-Pak C-18 cartridge to extract native GHRH or a GHRH analogue residual concentrations from serum proteins. The native GHRH or the analogue was eluted in 2 ml of 50% acetonitrile-0.01% TFA/50% 0.01% aqueous TFA. Two hundred μl of extracted peptide, representing 1 μg of GHRH or analogue at time 0, was quantified by analytical HPLC, using one μ-Bondapak C18 column (10 μm particle size, 0.39×15 cm) (rat serum) or two C18 column in series (human serum and plasma) and a binary solvent system composed of NaClO4 0.01 M, pH 2.5 and acetonitrile. A linear gradient from 30 to 60% acetonitrile over 45 min (rat serum) or 30 to 50% (human serum and plasma) was used.
(§2) More specifically, the values represent the mean, standard deviation and standard error from the mean of 3 to 7 experiments.

male Beagle dog = assay: In vivo GH secretion after escalating SC injections in a male Beagle dog; conditions: AUC not measured
Experimental: The ability of human GHRH analogue #5 (human [D-Ala^2, D-Tyr^10, D-Ala^15, Lys^22] GHRH (1-29)NH2 analogue) to stimulate GH secretion was studied in adult female rats (26-34 weeks at onset of treatment) and in a male Beagle dog.
Human GHRH analogue #5, in 0.9% sodium chloride for injection USP, was administered on days 3, 5 and 8 at dose levels of 0.01, 0.1, and 1 mg/kg body weight, respectively by subcutaneous (SC) injection to an approximately 8-month old male dog as shown in Table 3. On Day 1, the dog received the control (vehicle) article and on Day 11, the animal received the positive control, hGHRH (1-44)NH2 at a dose level of 0.01 mg/kg. Prior to administration, all dosing formulations were filtered using a 0.22 μm filter to ensure sterility. The actual amount of GHRH analogue #5 administered was calculated and adjusted based on the animal's most recent body weight. Dosing started at approximately the same time each day, commencing at 9:00 am±30 minutes. […]
Plasma GH was determined by Linco Diagnostic Services using their own kit. Linco's Porcine/Canine Growth Hormone radioimmunoassay kit (RIA) (PGH-46HK) has been developed to quantitate Growth Hormone in plasma, serum, and tissue culture media. […]

in vitro = conditions: male, human, plasma
Experimental: as §1, §2

CC[C@H](C)[C@H](NC(=O)[C@H](C)NC(=O)[C@H](CC(=O)O)NC(=O)[C@@H](C)NC(=O)[C@@H](N)Cc1ccc(O)cc1)C(=O)N[C@@H](Cc1ccccc1)C(=O)N[C@H](C(=O)N[C@@H](CC(N)=O)C(=O)N[C@@H](CO)C(=O)N[C@H](Cc1ccc(O)cc1)C(=O)N[C@@H](CCCNC(=N)N)C(=O)N[C@@H](CCCCN)C(=O)N[C@H](C(=O)N[C@@H](CC(C)C)C(=O)N[C@H](C)C(=O)N[C@@H](CCC(N)=O)C(=O)N[C@@H](CC(C)C)C(=O)N[C@@H](CO)C(=O)N[C@@H](C)C(=O)N[C@@H](CCCNC(=N)N)C(=O)N[C@@H](CCCCN)C(=O)N[C@@H](CCCCN)C(=O)N[C@@H](CC(C)C)C(=O)N[C@@H](CCC(N)=O)C(=O)N[C@@H](CC(=O)O)C(=O)N[C@H](C(=O)N[C@@H](CCSC)C(=O)N[C@@H](CO)C(=O)N[C@@H](CCCNC(=N)N)C(N)=O)[C@@H](C)CC)C(C)C)[C@@H](C)O [GHRH analogue #5, [D-Ala^2, D-Tyr^10, D-Ala^15, Lys^22] hGHRH(1-29)-NH2] (H-Y[dA]DAIFTNS[dY]RKVL[dA]QLSARKKLQDIMSR-NH2)
IC50 (human GHRH receptor; Table 7, mean±SEM of 3 experiments (analogue) or 2 experiments (hGHRH(1-44)NH2) in triplicate): no significant difference was observed | Relative binding affinity (R1) in comparison with hGHRH(1-29)NH2 in BHK cells expressing the hGHRH receptor (human GHRH receptor; ratio IC50 of hGHRH(1-29)-NH2/IC50 analogue, mean±SEM): 939 ± 249 | Residual concentration ([1]; incubation 0 min): 100 ± 0 % of initial concentration | Residual concentration ([1]; incubation 60 min): significantly higher than that of either GHRH analogue 1, 2 or 3 | remaining at 8 min, 15 µM ([1]; male, Sprague Dawley, diluted 1/100, incubation 8 min, read-out: Residual concentration): 92 ± 5% | remaining at 0.25 h, 15 µM ([1]; male, Sprague Dawley, diluted 1/100, incubation 15 min, read-out: Residual concentration): 82 ± 6% | remaining at 0.5 h, 15 µM ([1]; male, Sprague Dawley, diluted 1/100, incubation 30 min, read-out: Residual concentration): 74 ± 7% | remaining at 1 h, 15 µM ([1]; male, Sprague Dawley, diluted 1/100, incubation 60 min, read-out: Residual concentration): 50 ± 3% | R2 (60 min): Relative resistance to in vitro proteolysis in comparison with hGHRH(1-29)NH2 ([2]; 60-min incubation in human serum): 1.55 ± 0.04 | R2 (180 min): Relative resistance to in vitro proteolysis in comparison with hGHRH(1-29)NH2 ([2]; 180-min incubation in human serum): 2.93 ± 0.87 | Mean residual amount ([2]; human serum, incubation time 0 min): 100% | Mean residual amount ([2]; human serum, incubation time 420 min): 50% | remaining at 3 h, 15 µM ([2]; human, pooled human serum, 180-min incubation in human serum, read-out: Residual peptide concentration (180 min)): 62 ± 2% | remaining at 1 h, 15 µM ([2]; human, pooled human serum, human serum, incubation time 60 min, read-out: Mean residual amount): 88% | remaining at 2 h, 15 µM ([2]; human, pooled human serum, human serum, incubation time 120 min, read-out: Mean residual amount): 76% | remaining at 3 h, 15 µM ([2]; human, pooled human serum, human serum, incubation time 180 min, read-out: Mean residual amount): 63% | remaining at 7 h, 15 µM ([2]; human, pooled human serum, human serum, incubation time 420 min, read-out: Mean residual amount): 50% | GH response compared with response to natural hGHRH(1-44)NH2 (male Beagle dog): significantly larger | remaining at 1 h, 15 µM (in vitro; Mean residual amount): 92% | remaining at 2 h, 15 µM (in vitro; Mean residual amount): 84% | remaining at 3 h, 15 µM (in vitro; Mean residual amount): 78% | remaining at 7 h, 15 µM (in vitro; Mean residual amount): 75% | remaining at 3 h, 15 µM (in vitro; Residual peptide concentration): 74 ± 7%
